Test results taken from the supplement of paper PMC10627819.

How the values were obtained:
Conditions in all cases: main component drawn
[1] = test system: B. subtilis 168; experiment: fitness (endpoint OD595 vs no drug) (fraction); higher = more growth
Method in brief: (§1)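 Fitness expresses the optical density reached at the stationary-phase transition as a fraction of the robust mean of no-drug control wells. It is capped at 1. Measurements were OD595 every 30 min for 14 h at 37 °C after inoculation of 384-well plates at OD595 0.01 (30 µl, or 55 µl for S. pneumoniae), minus the first reading.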

[2] = test system: S. aureus Newman; experiment: as above
Method in brief: as §1

[3] = test system: S. aureus DSM 20231; experiment: Bliss interaction score (quartile over a dose matrix) (fitness difference); higher = more antagonism (negative = synergy)
Method in brief: (§2)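 The Bliss score is observed minus expected fitness under the product model, reported as quartiles over technical, biological and donor/recipient replicates. Fitness is the OD595 at entry into stationary phase divided by the plate's robust no-drug mean and capped at 1. Single-drug fitness was inferred from combination data.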

[4] = test system: B. subtilis 168; experiment: as above
Method in brief: as §2

[5] = test system: S. pneumoniae D39V; experiment: as above
Method in brief: as §2

[6] = test system: S. aureus Newman; experiment: as above
Method in brief: as §2
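Throughout, for Bliss interaction score (quartile over a dose matrix): first quartile when negative (synergy) and third quartile when positive (antagonism).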

CC[C@H](C)[C@H](N)C1=N[C@H](C(=O)N[C@@H](CC(C)C)C(=O)N[C@H](CCC(=O)O)C(=O)N[C@H](C(=O)N[C@H]2CCCCNC(=O)[C@H](CC(N)=O)NC(=O)[C@@H](CC(=O)O)NC(=O)[C@H](Cc3cnc[nH]3)NC(=O)[C@@H](Cc3ccccc3)NC(=O)[C@H]([C@@H](C)CC)NC(=O)[C@@H](CCCN)NC2=O)[C@@H](C)CC)CS1 [Bacitracin] + CC1=C\[C@@H](O)CC(=O)Cc2nc(co2)C(=O)N2CCC=C2C(=O)O[C@H](C(C)C)[C@H](C)/C=C/C(=O)NC\C=C\1 [Virginiamycin M1]
fitness
Conditions	partner 0.0625 µg/mL	partner 0.125 µg/mL	partner 0.25 µg/mL
[1], first compound 37.5 µg/mL	0.986	0.926	0.927
[1], first compound 75 µg/mL	0.994	0.861	0.951
[2], first compound 18.75 µg/mL	0.698	0.698	0.705
[2], first compound 37.5 µg/mL	0.146	0.215	0.215
[2], first compound 75 µg/mL	0.037	0.0313	0.0704

fitness, [2], one replicate
Conditions	first compound 18.75 µg/mL	first compound 37.5 µg/mL	first compound 75 µg/mL
partner 0.5 µg/mL	0.693	0.519	0.0148
partner 1 µg/mL	0.72	0.368	0.0101
partner 2 µg/mL	0.594	0.127	0.0147

Conditions	Bliss interaction score
[3]	-0.0463
[4]	0.0905
[5]	0.094
[6]	0.0498

CC[C@H](C)[C@H](N)C1=N[C@H](C(=O)N[C@@H](CC(C)C)C(=O)N[C@H](CCC(=O)O)C(=O)N[C@H](C(=O)N[C@H]2CCCCNC(=O)[C@H](CC(N)=O)NC(=O)[C@@H](CC(=O)O)NC(=O)[C@H](Cc3cnc[nH]3)NC(=O)[C@@H](Cc3ccccc3)NC(=O)[C@H]([C@@H](C)CC)NC(=O)[C@@H](CCCN)NC2=O)[C@@H](C)CC)CS1 [Bacitracin] + CC(C1CCC(C(O1)OC2C(CC(C(C2O)OC3C(C(C(CO3)(C)O)NC)O)N)N)N)NC [Gentamicin]
fitness
Conditions	first compound 18.75 µg/mL	first compound 37.5 µg/mL	first compound 75 µg/mL	first compound 150 µg/mL
[1], partner 0.125 µg/mL	–	–	–	0.0432
[1], partner 0.25 µg/mL	–	0.0865	0.0452	0.0472
[2], partner 0.375 µg/mL	0.591	0.122	0.0738	–
[2], partner 0.5 µg/mL	0.759	0.625	0.0785	–
[2], partner 0.75 µg/mL	0.461	0.137	0.0623	–
[2], partner 1 µg/mL	0.803	–	0.0125	–
[2], partner 1.5 µg/mL	–	0.163	0.0666	–
[2], partner 2 µg/mL	0.842	–	0.0163	–

Conditions	Bliss interaction score
[3]	-0.0565
[4]	-0.298
[5]	-0.149
[6]	0.102

CC[C@H](C)[C@H](N)C1=N[C@H](C(=O)N[C@@H](CC(C)C)C(=O)N[C@H](CCC(=O)O)C(=O)N[C@H](C(=O)N[C@H]2CCCCNC(=O)[C@H](CC(N)=O)NC(=O)[C@@H](CC(=O)O)NC(=O)[C@H](Cc3cnc[nH]3)NC(=O)[C@@H](Cc3ccccc3)NC(=O)[C@H]([C@@H](C)CC)NC(=O)[C@@H](CCCN)NC2=O)[C@@H](C)CC)CS1 [Bacitracin] + CCC[C@@H]1C[C@@H](C(=O)N[C@@H]([C@H]2O[C@H](SC)[C@H](O)[C@@H](O)[C@H]2O)[C@H](C)Cl)N(C)C1 [Clindamycin]
fitness, [1], one replicate
Conditions	first compound 37.5 µg/mL	first compound 75 µg/mL	first compound 150 µg/mL
partner 0.0039 µg/mL	0.995	≥ 1	≥ 1
partner 0.0078 µg/mL	0.878	0.891	0.845
partner 0.0156 µg/mL	0.831	0.861	0.871

fitness
Conditions	first compound 18.75 µg/mL	first compound 37.5 µg/mL	first compound 75 µg/mL	first compound 150 µg/mL
[1], partner 0.0625 µg/mL	–	0.649	0.568	–
[1], partner 0.125 µg/mL	–	0.42	0.364	0.108
[1], partner 0.25 µg/mL	–	0.363	0.241	0.0433
[2], partner 0.0312 µg/mL	–	–	0.0388	–
[2], partner 0.0625 µg/mL	–	0.067	0.0139	–
[2], partner 0.125 µg/mL	0.0166	0.0173	0.0265	–

Conditions	Bliss interaction score
[3]	0.0155
[4]	-0.0851
[5]	-0.071
[6]	-0.052

CC[C@H](C)[C@H](N)C1=N[C@H](C(=O)N[C@@H](CC(C)C)C(=O)N[C@H](CCC(=O)O)C(=O)N[C@H](C(=O)N[C@H]2CCCCNC(=O)[C@H](CC(N)=O)NC(=O)[C@@H](CC(=O)O)NC(=O)[C@H](Cc3cnc[nH]3)NC(=O)[C@@H](Cc3ccccc3)NC(=O)[C@H]([C@@H](C)CC)NC(=O)[C@@H](CCCN)NC2=O)[C@@H](C)CC)CS1 [Bacitracin] + CCN(CC)CCOC(=O)c1ccc(N)cc1 [Procaine]
fitness
Conditions	partner 85.5 µg/mL	partner 171 µg/mL	partner 342 µg/mL
[1], first compound 37.5 µg/mL	0.88	0.939	0.874
[1], first compound 75 µg/mL	0.899	0.879	0.871
[1], first compound 150 µg/mL	0.753	0.752	0.619
[2], first compound 18.75 µg/mL	0.792	0.738	0.749
[2], first compound 75 µg/mL	0.0486	0.0139	0.0176

Conditions	Bliss interaction score
[3]	0.0191
[4]	0.116
[5]	-0.0511
[6]	0.0965

CC[C@H](C)[C@H](N)C1=N[C@H](C(=O)N[C@@H](CC(C)C)C(=O)N[C@H](CCC(=O)O)C(=O)N[C@H](C(=O)N[C@H]2CCCCNC(=O)[C@H](CC(N)=O)NC(=O)[C@@H](CC(=O)O)NC(=O)[C@H](Cc3cnc[nH]3)NC(=O)[C@@H](Cc3ccccc3)NC(=O)[C@H]([C@@H](C)CC)NC(=O)[C@@H](CCCN)NC2=O)[C@@H](C)CC)CS1 [Bacitracin] + CN1C2=CC=CC=C2N=C3C1=CC=CC3=O [Pyocyanin]
fitness
Conditions	first compound 18.75 µg/mL	first compound 37.5 µg/mL	first compound 75 µg/mL	first compound 150 µg/mL
[1], partner 1.25 µg/mL	–	0.9	0.931	0.8
[1], partner 2.5 µg/mL	–	0.839	0.853	0.682
[1], partner 5 µg/mL	–	0.614	0.594	0.419
[2], partner 1.25 µg/mL	0.574	0.208	0.04	–
[2], partner 2.5 µg/mL	0.496	0.18	0.0276	–
[2], partner 5 µg/mL	0.281	0.148	0.0716	–

Conditions	Bliss interaction score
[3]	0.0748
[4]	0.0566
[5]	0.0487
[6]	-0.0473

CC[C@H](C)[C@H](N)C1=N[C@H](C(=O)N[C@@H](CC(C)C)C(=O)N[C@H](CCC(=O)O)C(=O)N[C@H](C(=O)N[C@H]2CCCCNC(=O)[C@H](CC(N)=O)NC(=O)[C@@H](CC(=O)O)NC(=O)[C@H](Cc3cnc[nH]3)NC(=O)[C@@H](Cc3ccccc3)NC(=O)[C@H]([C@@H](C)CC)NC(=O)[C@@H](CCCN)NC2=O)[C@@H](C)CC)CS1 [Bacitracin] + CN(C)c1cc(NC(=O)CNC(C)(C)C)c(O)c2c1C[C@H]1C[C@H]3[C@H](N(C)C)C(O)=C(C(N)=O)C(=O)[C@@]3(O)C(O)=C1C2=O [Tigecycline]
fitness
Conditions	partner 0.039 µg/mL	partner 0.078 µg/mL	partner 0.156 µg/mL
[1], first compound 37.5 µg/mL	0.997	0.946	0.867
[1], first compound 75 µg/mL	≥ 1	0.859	0.933
[2], first compound 18.75 µg/mL	0.705	0.707	0.724
[2], first compound 75 µg/mL	0.0511	0.058	0.0883

fitness, [1], one replicate
Conditions	first compound 37.5 µg/mL	first compound 75 µg/mL	first compound 150 µg/mL
partner 0.125 µg/mL	≥ 1	≥ 1	≥ 1
partner 0.25 µg/mL	0.907	0.892	0.855
partner 0.5 µg/mL	0.915	0.947	0.914

Conditions	Bliss interaction score
[3]	0.0393
[4]	0.0848
[5]	0.0672
[6]	0.0592

CC[C@H](C)[C@H](N)C1=N[C@H](C(=O)N[C@@H](CC(C)C)C(=O)N[C@H](CCC(=O)O)C(=O)N[C@H](C(=O)N[C@H]2CCCCNC(=O)[C@H](CC(N)=O)NC(=O)[C@@H](CC(=O)O)NC(=O)[C@H](Cc3cnc[nH]3)NC(=O)[C@@H](Cc3ccccc3)NC(=O)[C@H]([C@@H](C)CC)NC(=O)[C@@H](CCCN)NC2=O)[C@@H](C)CC)CS1 [Bacitracin] + CN(N=O)C(=O)N[C@@H](C=O)[C@@H](O)[C@H](O)[C@H](O)CO [Streptozotocin]
fitness
Conditions	partner 0.15 µg/mL	partner 0.3 µg/mL	partner 0.6 µg/mL
[1], first compound 37.5 µg/mL	0.913	0.856	0.906
[1], first compound 75 µg/mL	0.806	0.857	0.876
[2], first compound 18.75 µg/mL	0.59	0.526	0.245
[2], first compound 37.5 µg/mL	0.124	0.0706	0.0163
[2], first compound 75 µg/mL	0.0279	0.0183	0.0064

Conditions	Bliss interaction score
[3]	-0.0576
[4]	0.0453
[5]	-0.0625
[6]	-0.104
